Experiments:
[1] = system: BCL6 reporter construct (3xBCL6-TK-Luc) in SuDHL4 cells; assay: Cell-based luciferase assay; settings: Homo sapiens, SU-DHL-4, 48 h, read-out: Luciferase-Assay EC50, uM), SuDHL4-3xBCL6-TK-Luc cells, two days, high dose 10 uM
Method in brief: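 SuDHL4 cells stably carrying a 3×BCL6-site TK-promoter firefly luciferase reporter, seeded at 15,000 cells/well, were dosed over a 10-point range (top 10 uM) and grown two days at 37 °C, 5% CO2. Luminescence then read after adding neolite reagent at room temperature.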

[2] = target: BCL6 BTB domain (Homo sapiens (Human), UniProt P41182); assay: Surface plasmon resonance (SPR) assay; assay type: binding; settings: BCL6 BTB domain captured on SA chip, single cycle kinetics
[3] = system: Karpas422 cells; assay: Tumor cell growth inhibition assay; assay type: cell-based; settings: Homo sapiens, KARPAS-422, 144 h, read-out: Tumor Growth Inhibition in Karpas-422 (IC50, uM), Karpas422 cells, six days, ATPlite
Method in brief: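 Karpas422 cells (2,000/well) in Alpha-MEM with 10% FBS dosed across 10 concentrations (top 5 uM) and grown six days at 37° C., 5% CO2. Viability read as ATPlite luminescence.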

Row | Structure (SMILES) | EC50 [1] [µM] | Kd [2] [nM] | IC50 [3] [µM]
1 | C[C@H]1COCCN1c1cc(NC(=O)Cn2cc(-c3cc(C(N)=O)c(O)c(F)c3F)c3c(=O)n(CC#Cc4cnn(C)c4)cnc32)c(Cl)cn1 [Compound I-321] | 0.405 | 9.19 | 0.437
2 | C=C(C)c1nc2c(c(-c3cc(Cl)c(O)c(C(N)=O)c3)cn2CC(=O)Nc2cc(N3CCN(C)C[C@@H]3C)ncc2Cl)c(=O)n1C [Compound I-322] | 3.09 | 34 | 1.19
3 | COCn1c(Cl)nc2c(c(-c3cc(Cl)c(O)c(C(N)=O)c3)cn2CC(=O)Nc2cc(N3CCN(C)C[C@@H]3C)ncc2Cl)c1=O [Compound I-323] | 1.09 | 100 | 0.914
4 | CN1CC2CC1CN2c1cc(NC(=O)Cn2cc(-c3cc(C(N)=O)c(O)c(F)c3F)c3c(=O)n(C)cnc32)c(Cl)cn1 (stereo not drawn) [Compound I-324] | 10 | 264 | 10
5 | CN1CCOC2CN(c3cc(NC(=O)Cn4cc(-c5cc(C(N)=O)c(O)c(F)c5F)c5c(=O)n(C)cnc54)c(Cl)cn3)CC21 (stereo not drawn) [Compound I-325] | 2 | 40.8 | 1.13
6 | CN(C)C1CN(c2cc(NC(=O)Cn3cc(-c4cc(C(N)=O)c(O)c(F)c4F)c4c(=O)n(C)cnc43)c(Cl)cn2)C1 [Compound I-326] | 2.35 | 64.5 | 2
7 | CN1CCN(c2cc(NC(=O)Cn3cc(-c4cc(C(N)=O)c(O)c(F)c4F)c4c(=O)n(C)cnc43)c(Cl)cn2)C(C)(C)C1 [Compound I-327] | 3 | 271 | 2.07
8 | Cn1cnc2c(c(-c3cc(Cl)c(O)c(C(N)=O)c3)cn2CC(=O)Nc2nc(N3CCOCC3)c(F)cc2Cl)c1=O [Compound I-328] | 3.76 | 239 | 2.66
9 | CN1CCOC2CN(c3cc(NC(=O)Cn4cc(-c5cc(Cl)c(O)c(C(N)=O)c5)c5c(=O)n(C)cnc54)c(Cl)cn3)CC21 (stereo not drawn) [Compound I-329] | 0.345 | 13.4 | 0.173
10 | CN(C)CC1COCCN1c1cc(NC(=O)Cn2cc(-c3cc(Cl)c(O)c(C(N)=O)c3)c3c(=O)n(C)cnc32)c(Cl)cn1 (stereo not drawn) [Compound I-330] | 0.89 | 39.4 | 0.56
11 | CCN1CCN(c2cc(NC(=O)Cn3cc(-c4cc(Cl)c(O)c(C(N)=O)c4)c4c(=O)n(C)cnc43)c(Cl)cn2)[C@@H](C)C1 [Compound I-331] | 0.254 | 17.8 | 0.176
12 | Cc1cc(NC(=O)Cn2cc(-c3cc(C(N)=O)c(O)c(F)c3F)c3c(=O)n(C)cnc32)c(Cl)cn1 [Compound I-333] | 2.42 | 145 | 4.21
13 | Cc1cc(NC(=O)Cn2cc(-c3cc(Cl)c(O)c(C(N)=O)c3)c3c(=O)n(C)cnc32)c(Cl)cn1 [Compound I-334] | 0.475 | 30.5 | 0.829
14 | C[C@H]1CNCCN1c1cc(NC(=O)Cn2cc(-c3cc(C(N)=O)c(O)c(F)c3F)c3c(=O)n(C)cnc32)c(Cl)cn1 [Compound I-335] | 6.92 | 24.6 | 5.1
15 | CC1CN(C)CC(C)N1c1cc(NC(=O)Cn2cc(-c3cc(Cl)c(O)c(C(N)=O)c3)c3c(=O)n(C)cnc32)c(Cl)cn1 (stereo not drawn) [Compound I-340] | 0.0724 | 11.6 | 0.0759
16 | C[C@H]1CNCCN1c1cc(NC(=O)Cn2cc(-c3cc(Cl)c(O)c(C(N)=O)c3)c3c(=O)n(C)cnc32)c(Cl)cn1 [Compound I-342] | 0.312 | 11.3 | 0.27
17 | C[C@H]1CN(CC2CC2)CCN1c1cc(NC(=O)Cn2cc(-c3cc(Cl)c(O)c(C(N)=O)c3)c3c(=O)n(C)c(C(F)(F)F)nc32)c(Cl)cn1 [Compound I-343] | 0.641 | 180 | 0.383
18 | Cc1nc2c(c(-c3cc(C(N)=O)c(O)c(F)c3F)cn2CC(=O)Nc2cc(N3CCN(C4COC4)C[C@@H]3C)ncc2Cl)c(=O)n1C [Compound I-344] | 0.317 | 13.8 | 0.701
19 | C[C@H]1CN(C2COC2)CCN1c1cc(NC(=O)Cn2cc(-c3cc(Cl)c(O)c(C(N)=O)c3)c3c(=O)n(C)cnc32)c(Cl)cn1 [Compound I-345] | 0.0927 | 6.15 | 0.166
20 | CN(C)C1CN(c2cc(NC(=O)Cn3cc(-c4cc(Cl)c(O)c(C(N)=O)c4)c4c(=O)n(C)cnc43)c(Cl)cn2)C1 [Compound I-347] | 0.603 | 57.4 | 0.454
21 | CN1CC2CCC(C1)N2c1cc(NC(=O)Cn2cc(-c3cc(Cl)c(O)c(C(N)=O)c3)c3c(=O)n(C)cnc32)c(Cl)cn1 [Compound I-348] | 0.479 | 13.4 | 0.15

Row | Structure (SMILES) | EC50 [1] [µM] | Kd [2] [nM] | IC50 [3] [µM]
22 | C[C@H]1CNCCN1c1cc(NC(=O)Cn2cc(-c3cc(C(N)=O)c(O)c4c3OCO4)c3c(=O)n(C)cnc32)c(Cl)c(F)n1 [Compound I-349] | 0.131 | 3.29 | 0.0873
23 | Cn1cnc2c(c(-c3cc(Cl)c(O)c(C(N)=O)c3)cn2CC(=O)Nc2cc(N3CCOC4(CCC4)C3)ncc2Cl)c1=O [Compound I-350] | 0.486 | 63.9 | 0.897
24 | Cn1cnc2c(c(-c3cc(Cl)c(O)c(C(N)=O)c3)cn2CC(=O)Nc2cc(N3CC4(CCOC4)C3)ncc2Cl)c1=O [Compound I-351] | 0.591 | 40.1 | 1.2
25 | CN1CCN(c2cc(NC(=O)Cn3cc(-c4cc(Cl)c(O)c(C(N)=O)c4)c4c(=O)n(C)cnc43)c(Cl)cn2)C(C)(C)C1 [Compound I-352] | 0.79 | 59.7 | 0.346
26 | C[C@@H]1CN(c2cc(NC(=O)Cn3cc(-c4cc(C(N)=O)c(O)c(F)c4F)c4c(=O)n(C)cnc43)c(Cl)cn2)C[C@H](C)N1C [Compound I-353] | 1.35 | 75 | 0.648
27 | CO[C@@H]1CCN(c2cc(NC(=O)Cn3cc(-c4cc(C(N)=O)c(O)c(F)c4F)c4c(=O)n(C)cnc43)c(Cl)cn2)C1 [Compound I-354] | 1.02 | 54.8 | 1.27
28 | CCN1CCN(c2cc(NC(=O)Cn3cc(-c4cc(C(N)=O)c(O)c5c4OCO5)c4c(=O)n(C)cnc43)c(Cl)c(F)n2)[C@@H](C)C1 [Compound I-357] | 0.0322 | 1.86 | 0.0288
29 | C[C@H]1CN(C2CCC2)CCN1c1cc(NC(=O)Cn2cc(-c3cc(Cl)c(O)c(C(N)=O)c3)c3c(=O)n(C)cnc32)c(Cl)cn1 [Compound I-358] | 0.256 | 22.7 | 0.341
30 | C[C@H]1CN(C2CCC2)CCN1c1cc(NC(=O)Cn2cc(-c3cc(C(N)=O)c(O)c(F)c3F)c3c(=O)n(C)cnc32)c(Cl)cn1 [Compound I-359] | 0.521 | 42.2 | 1.34
31 | CC(C)[C@H]1CN(C)CCN1c1cc(NC(=O)Cn2cc(-c3cc(Cl)c(O)c(C(N)=O)c3)c3c(=O)n(C)cnc32)c(Cl)cn1 [Compound I-360] | 0.659 | 30.9 | 0.778
32 | CC(C)[C@H]1CN(C)CCN1c1cc(NC(=O)Cn2cc(-c3cc(C(N)=O)c(O)c(F)c3F)c3c(=O)n(C)cnc32)c(Cl)cn1 [Compound I-361] | 1.33 | 70.8 | 1.37
33 | Cn1cnc2c(c(-c3cc(Cl)c(O)c(C(N)=O)c3)cn2CC(=O)Nc2cc(N3CC4CC3CN4CC(F)(F)F)ncc2Cl)c1=O (stereo not drawn) [Compound I-362] | 0.226 | 38 | 0.337
34 | Cn1cnc2c(c(-c3cc(C(N)=O)c(O)c(F)c3F)cn2CC(=O)Nc2cc(N3CC4CC3CN4CC(F)(F)F)ncc2Cl)c1=O (stereo not drawn) [Compound I-363] | 0.931 | 59.3 | 1.19
35 | CO[C@H]1CN(c2cc(NC(=O)Cn3cc(-c4cc(C(N)=O)c(O)c(F)c4F)c4c(=O)n(C)cnc43)c(Cl)cn2)C[C@H]1F [Compound I-364] | 0.819 | 25 | 1.04
36 | CO[C@@H]1CN(c2cc(NC(=O)Cn3cc(-c4cc(Cl)c(O)c(C(N)=O)c4)c4c(=O)n(C)cnc43)c(Cl)cn2)C[C@@H]1F [Compound I-365] | 0.281 | 17.4 | 0.462
37 | CO[C@@H]1CN(c2cc(NC(=O)Cn3cc(-c4cc(C(N)=O)c(O)c(F)c4F)c4c(=O)n(C)cnc43)c(Cl)cn2)C[C@@H]1F [Compound I-366] | 0.899 | 35.2 | 0.978
38 | CN1CC2CC1CN2c1cc(NC(=O)Cn2cc(-c3cc(Cl)c(O)c(C(N)=O)c3)c3c(=O)n(C)cnc32)c(Cl)cn1 (stereo not drawn) [Compound I-367] | 5.3 | 41.9 | 3.49
39 | C[C@H]1CN(C)CCN1c1cc(NC(=O)Cn2cc(-c3cc(Cl)c(O)c(C(N)=O)c3)c3c(=O)n(C)c(C(F)(F)F)nc32)c(Cl)c(F)n1 [Compound I-368] | 0.369 | 83.5 | 0.407
40 | CN1C(C)(C)CN(c2cc(NC(=O)Cn3cc(-c4cc(C(N)=O)c(O)c(F)c4F)c4c(=O)n(C)cnc43)c(Cl)cn2)CC1(C)C [Compound I-369] | 2.2 | 159 | 2.8
41 | C[C@H]1CN(C2COC2)CCN1c1cc(NC(=O)Cn2cc(-c3cc(Cl)c(O)c(C(N)=O)c3)c3c(=O)n(C)c(C(F)(F)F)nc32)c(Cl)cn1 [Compound I-371] | 0.141 | 39.5 | 0.288
42 | C[C@H]1CN(C2COC2)CCN1c1cc(NC(=O)Cn2cc(-c3cc(F)c(O)c(C(N)=O)c3)c3c(=O)n(C)cnc32)c(Cl)cn1 [Compound I-372] | 0.233 | 7.41 | 0.267

Reference: patent US11518764B2, “Substituted heteroaryls as inhibitors of the BCL6 BTB domain protein-protein interaction” (Ontario Institute for Cancer Research (OICR), priority 2018, dated 2022)
